Experimental data taken from patent US20240325369A1 (priority 2021, published 2024).
“And” between values parts separate entries of the source, which are not always exact repeats. Identical values can stand only once. Like-named read-outs stand apart in the source and are kept apart here.

System: metastatic castration-resistant prostate cancer (mCRPC) with DNA-repair anomalies
Settings: for CTC Response (CTC = 0 at week 8), % of subjects / CTC Response (CTC = 0 at week 8), number of subjects: ITT with baseline CTC >0 (N=131)
Method: The planned sample size was approximately 120 subjects with measurable disease who were biomarker-positive (approximately 75 subjects with DNA repair anomalies in BRCA [BRCA1 or BRCA2] and approximately 45 subjects with biallelic DNA-repair anomalies in non-BRCA [ATM, FANCA, PALB2, CHEK2, BRIP1, or HDAC2]).
Efficacy objectives were evaluated for subjects meeting the biomarker selection criteria described in the protocol. All subjects were monitored for safety during the study period, and up to 30 days after the last dose of study drug. Treatment continued until disease progression, unacceptable toxicity, death, or termination of the study by the sponsor.
Diagnosis and Main Criteria for Inclusion: The target population consisted of male subjects over the age of 18 years with mCRPC and DNA-repair anomalies (biallelic mutations and germline pathogenic mutations only for BRCA1 or BRCA2 mutations) who had received at least 1 prior taxane-based chemotherapy and at least 1 prior AR targeted therapy (second-generation or later). Subjects were asked to provide a tumor tissue sample (archival or recently collected, if available), and a blood sample for analysis of DNA-repair anomalies using a sponsor-validated assay.
Criteria for Evaluation: Efficacy assessments included chest, abdomen, and pelvis CT or MRI scans and whole-body bone scans (^99mTc) to evaluate objective response and disease progression.
The primary endpoint was ORR and summarized for the BRCA analysis set along with the 95% 2-sided exact CI. In addition, the counts and percentage of subjects in each response category (CR. PR, etc.) were tabulated. ORR in non-BRCA subjects was analyzed in the same way.
Descriptive summaries of CTC response were generated for BRCA and non-BRCA analysis sets, measurable and non-measurable subgroups and tabulated with its 2-sided 95% exact CI. Waterfall plots of percent change in CTC were also presented, showing the percentage change in CTC counts from baseline to 8 weeks, as well as maximal CTC count declines. All time to event secondary endpoints were evaluated using Kaplan-Meier method for BRCA and non-BRCA analysis sets. Median time to event and the corresponding 95% CI were provided. Descriptive summaries were provided for BRCA and non-BRCA analysis sets.
Time to degradation was determined using the following meaningful change threshold values: FACT-P Total (10-point reduction from baseline), EQ-5D-5L Index (0.09-point reduction from baseline). EQ-5D-5L VAS (10-point reduction from baseline), and BPI SF worst pain intensity item (30% reduction from baseline).
The primary endpoint was ORR, defined as the proportion of subjects with BRCA DNA-repair anomalies and measurable disease whose best response was either CR or PR as defined by RECIST 1.1 (Eisenhauer et al 2009) and who had no evidence of bone progression according to the PCWG3 criteria (Scher et al 2016).
ORR final analysis was performed approximately 6 months from Cycle 1 Day 1 of the last subject with a BRCA DNA-repair anomaly and measurable disease. Objective response as determined by investigator assessment was considered as the primary analysis.
Subjects who discontinued the study without a response assessment were considered as non-responders in the analysis. The objective response rate was calculated and its 2-sided 95% exact CI presented. In addition, the counts and percentage of subjects in each response category (CR, PR, etc.) were tabulated.
The following analyses of CTC response were performed for BRCA and non-BRCA analysis sets, measurable and non-measurable subgroups: • Descriptive summaries • CTC response rate was tabulated with its 2-sided 95% exact CI
All time to event secondary endpoints were evaluated using Kaplan-Meier method for BRCA and non-BRCA analysis sets. Median time to event and the corresponding 95% CI were provided. Descriptive summaries were provided for BRCA and non-BRCA analysis sets.

[1] = BRCA, ITT (N=142), Kaplan-Meier, 300 mg once daily
[2] = BRCA, 300 mg once daily, listed as niraparib
[3] = BRCA, measurable ITT (N=76), 300 mg once daily
[4] = BRCA, measurable ITT responders (N=26), 300 mg once daily
[5] = BRCA, measurable ITT responders (N=26), Kaplan-Meier, 300 mg once daily
[6] = BRCA, patients with baseline CTC ≥5 (n=117), 300 mg once daily
[7] = NON-BRCA, ITT (N=81), 300 mg once daily
[8] = NON-BRCA, measurable ITT responders (N=5), 300 mg once daily
[9] = NON-BRCA, measurable ITT responders (N=5), Kaplan-Meier, 300 mg once daily
[10] = Non-BRCA (n = 81), 300 mg once daily
[11] = Non-BRCA, patients with baseline CTC ≥5 (n=60), 300 mg once daily

NC(=O)c1cccc2cn(-c3ccc([C@@H]4CCCNC4)cc3)nc12 [Niraparib, 2-[4-[(3S)-piperidin-3-yl]phenyl]-2H-indazole-7-carboxamide]
Time to PSA progression: time to event, Median [1]: 5.13 months
Time to radiographic progression: time to event, 25th percentile [1]: 4.76 months
Time to radiographic progression: time to event, 75th percentile [1]: 11.63 months
Time to symptomatic skeletal event (SSE): time to event, Median [1]: 13.80 months
Time to symptomatic skeletal event: time to event, 25th percentile [1]: 7.52 months
rPFS: time to event, 25th percentile [1]: 4.44 months
rPFS: time to event, 75th percentile [1]: 11.56 months
CTC Response (CTC = 0 at week 8), % of subjects (BRCA, 300 mg once daily): (23.7%)
CTC Response (CTC = 0 at week 8), number of subjects (BRCA, 300 mg once daily): 31
CTC Response (CTC = 0 at week 8), % of subjects [2]: (23.7) %
CTC Response (CTC = 0 at week 8), number of subjects [2]: 31/131
DOR, median (range) (BRCA, as printed in Table 13, 300 mg once daily): 6.28 mo
Best Overall Response: Complete Response (CR), % of subjects [3]: 2.6%
Best Overall Response: Complete Response (CR), number of subjects [3]: 2
Best Overall Response: Not Available (NA), % of subjects [3]: 9.2%
Best Overall Response: Not Available (NA), number of subjects [3]: 7
Best Overall Response: Partial Response (PR), % of subjects [3]: 31.6%
Best Overall Response: Partial Response (PR), number of subjects [3]: 24
Best Overall Response: Progressive Disease (PD), % of subjects [3]: 21.1%
Best Overall Response: Progressive Disease (PD), number of subjects [3]: 16
Best Overall Response: Stable Disease (SD), % of subjects [3]: 35.5%
Best Overall Response: Stable Disease (SD), number of subjects [3]: 27
ORR (objective response rate, RECIST 1.1, no bone progression per PCWG3), % of subjects [3]: 34.2%
ORR (objective response rate, RECIST 1.1, no bone progression per PCWG3), number of subjects [3]: 26
Objective response confirmed: Complete Response (CR), % of subjects [3]: 2.6%
Objective response confirmed: Complete Response (CR), number of subjects [3]: 2
Objective response confirmed: Partial Response (PR), % of subjects [3]: 31.6%
Objective response confirmed: Partial Response (PR), number of subjects [3]: 24
Duration of objective response: 6-month event-free rate [4]: 0.464
Duration of objective response: 12-month event-free rate [4]: 0.000
Duration of objective response: 18-month event-free rate [4]: 0.000
Duration of objective response: 24-month event-free rate [4]: 0.000
Duration of objective response: Censored, % of subjects [4]: (23.1%)
Duration of objective response: Censored, number of subjects [4]: 6
Duration of objective response: Event, % of subjects [4]: (76.9%)
Duration of objective response: Event, number of subjects [4]: 20
Duration of objective response: time to event, 25th percentile [5]: 3.75 months
Duration of objective response: time to event, 75th percentile [5]: 7.20 months
Duration of objective response: time to event, Median [5]: 5.55 months
CTC conversion (CTC count ≥5/7.5 mL blood at baseline to <5/7.5 mL blood at nadir), % of subjects [6]: 47.0%
CTC conversion (CTC count ≥5/7.5 mL blood at baseline to <5/7.5 mL blood at nadir), number of subjects [6]: 55
Time to PSA progression: 12-month event-free rate [7]: 0.000
Time to PSA progression: 18-month event-free rate [7]: 0.000
Duration of objective response: 6-month event-free rate [8]: 0.500
Duration of objective response: 18-month event-free rate [8]: 0.000
Duration of objective response: 24-month event-free rate [8]: 0.000
Duration of objective response: Censored, % of subjects [8]: (20.0%)
Duration of objective response: Censored, number of subjects [8]: 1
Duration of objective response: Event, % of subjects [8]: (80.0%)
Duration of objective response: Event, number of subjects [8]: 4
Duration of objective response: time to event, 25th percentile [9]: 2.96 months
Duration of objective response: time to event, 75th percentile [9]: 6.95 months
Duration of objective response: time to event, Median [9]: 5.16 months
CRR (composite response rate), % of subjects [10]: 14.8%
CRR (composite response rate), number of subjects [10]: 12
PSA50 (≥50% decline in prostate-specific antigen), % of subjects [10]: 4.9%
PSA50 (≥50% decline in prostate-specific antigen), number of subjects [10]: 4
CTC conversion (CTC count ≥5/7.5 mL blood at baseline to <5/7.5 mL blood at nadir), % of subjects [11]: 15.0%
CTC conversion (CTC count ≥5/7.5 mL blood at baseline to <5/7.5 mL blood at nadir), number of subjects [11]: 9
Best Overall Response: Complete Response (CR), number of subjects (in vivo): 0
Best Overall Response: Not Available (NA), % of subjects (in vivo): (17.0%)
Best Overall Response: Not Available (NA), number of subjects (in vivo): 8
Best Overall Response: Partial Response (PR), % of subjects (in vivo): (10.6%)
Best Overall Response: Partial Response (PR), number of subjects (in vivo): 5
Best Overall Response: Progressive Disease (PD), % of subjects (in vivo): (31.9%)
Best Overall Response: Progressive Disease (PD), number of subjects (in vivo): 15
Best Overall Response: Stable Disease (SD), % of subjects (in vivo): (40.4%)
Best Overall Response: Stable Disease (SD), number of subjects (in vivo): 19
Duration of objective response: 12-month event-free rate (in vivo): 0.000
Objective response confirmed: Complete Response (CR), number of subjects (in vivo): 0
Objective response confirmed: Partial Response (PR), % of subjects (in vivo): 5 (10.6%)
Objective response confirmed: Partial Response (PR), number of subjects (in vivo): 5 (10.6%)
Overall survival: 6-month event-free rate (in vivo): 0.841 and 0.709 and 0.793
Overall survival: 12-month event-free rate (in vivo): 0.564 and 0.413 and 0.508
Overall survival: 18-month event-free rate (in vivo): 0.334 and 0.198 and 0.278
Overall survival: 24-month event-free rate (in vivo): 0.152 and 0.111 and 0.136
Overall survival: time to event, 25th percentile (in vivo): 8.31 months and 4.86 months and 7.16 months
Overall survival: time to event, 75th percentile (in vivo): 19.52 months and 16.53 months and 19.42 months
Time to PSA progression: 6-month event-free rate (in vivo): 0.144
Time to PSA progression: 24-month event-free rate (in vivo): 0.000
Time to PSA progression: Censored, % of subjects (in vivo): (51.9%)
Time to PSA progression: Censored, number of subjects (in vivo): 57 and 42
Time to PSA progression: Event, % of subjects (in vivo): (48.1%)
Time to PSA progression: time to event, 25th percentile (in vivo): 2.79 months
Time to PSA progression: time to event, 75th percentile (in vivo): 4.63 months and 8.31 months
Time to PSA progression: time to event, Median (in vivo): 3.65 months
Time to radiographic progression: 6-month event-free rate (in vivo): 0.299
Time to radiographic progression: Censored, % of subjects (in vivo): (34.6%)
Time to radiographic progression: Censored, number of subjects (in vivo): 28
Time to radiographic progression: Event, number of subjects (in vivo): 53
Time to radiographic progression: time to event, 25th percentile (in vivo): 1.87 months
Time to radiographic progression: time to event, 75th percentile (in vivo): 8.11 months
Time to symptomatic skeletal event (SSE): time to event, Median (in vivo): 10.35 months
Time to symptomatic skeletal event: 6-month event-free rate (in vivo): 0.792
Time to symptomatic skeletal event: 12-month event-free rate (in vivo): 0.379
Time to symptomatic skeletal event: 18-month event-free rate (in vivo): 0.190
Time to symptomatic skeletal event: Censored, % of subjects (in vivo): (76.5%)
Time to symptomatic skeletal event: Censored, number of subjects (in vivo): 62
Time to symptomatic skeletal event: time to event, 25th percentile (in vivo): 6.51 months
Time to symptomatic skeletal event: time to event, 75th percentile (in vivo): 15.54 months
rPFS: 6-month event-free rate (in vivo): 0.289
rPFS: Censored, % of subjects (in vivo): (29.6%)
rPFS: Censored, number of subjects (in vivo): 24
rPFS: Event, % of subjects (in vivo): (70.4%)
rPFS: Event, number of subjects (in vivo): 57
rPFS: time to event, 25th percentile (in vivo): 1.87 months
rPFS: time to event, 75th percentile (in vivo): 6.47 months
